Laboratory results reported in PMC8851638 (ACS Omega, 2022).
≈ marks a conversion by molar mass, not a printed value. Where “and” joins values, the source holds several entries; their conditions need not be identical. Identical values can stand only once.

Legend:
C. albicans200 [1] = test: Single-step resistance selection; type: cell-based, Candida albicans; settings: 4 × MIC, 48 h
C. albicans100 [2] = test: Time-kill kinetic assay; type: cell-based, Candida albicans
RBCs = test: Hemolytic assay; type: cell-based; settings: human RBCs; compounds 1.0 mg/mL; Triton X-100 0.1% v/v; 37 °C, 35 min
[3] = system: C. albicans100 (MDR00100); test: MIC and MFC by broth microdilution; type: cell-based, Candida albicans; settings: for MFC/MIC: ratio in parentheses; for MIC: Candida albicans, read-out: MIC (mean ± SEM), C. albicans100
[4] = system: clinical pathogenic isolates; test: Single-step resistance selection, whole panel; type: cell-based; settings: 4 × MIC
C. albicans200 [5] = test: Time-kill kinetic assay; type: cell-based, Candida albicans
[6] = system: C. albicans200 (MDR00200); test: MIC and MFC by broth microdilution; type: cell-based, Candida albicans; settings: for MFC/MIC: C. albicans200, ratio in parentheses; for MIC: Candida albicans, read-out: MIC (mean ± SEM), C. albicans200, broth microdilution
[7] = system: C. albicans100 (MDR00100); test: Agar well-diffusion antimicrobial sensitivity assay; type: cell-based, Candida albicans; settings: Candida albicans, read-out: Inhibition Zone (IZ)
C. albicans100 [8] = test: Single-step resistance selection; type: cell-based, Candida albicans; settings: 4 × MIC, 48 h
[9] = system: C. albicans200 (MDR00200); test: Agar well-diffusion antimicrobial sensitivity assay; type: cell-based, Candida albicans; settings: Candida albicans, read-out: Inhibition Zone (IZ)
K. pneumoniae [10] = test: Time-kill kinetic assay; type: cell-based; settings: 2 × MIC
C. albicans200 [11] = test: Checkerboard combination assay with Ketoconazole; type: cell-based, Candida albicans
[12] = In vitro cytotoxicity on normal cell line; type: cell-based, rat; settings: rat, H9C2 heart/myocardium cells
[13] = system: H9C2: rat heart/myocardium; test: In vitro cytotoxicity on normal cell line; type: cell-based
K. pneumoniae (MDR00244) = test: MIC and MBC by broth microdilution; type: cell-based; settings: ratio in parentheses
E. coli [14] = test: Single-step resistance selection; type: cell-based; settings: 4 × MIC, 48 h
A. baumannii [15] = test: Checkerboard combination assay with Ciprofloxacin; type: cell-based
E. coli DNA gyrase = E. coli DNA gyrase (Escherichia coli, UniProt P0AES4+P0AES6); test: DNA gyrase inhibition; type: biochemical
Sequence of E. coli DNA gyrase (P0AES4 whole entry, one chain of several): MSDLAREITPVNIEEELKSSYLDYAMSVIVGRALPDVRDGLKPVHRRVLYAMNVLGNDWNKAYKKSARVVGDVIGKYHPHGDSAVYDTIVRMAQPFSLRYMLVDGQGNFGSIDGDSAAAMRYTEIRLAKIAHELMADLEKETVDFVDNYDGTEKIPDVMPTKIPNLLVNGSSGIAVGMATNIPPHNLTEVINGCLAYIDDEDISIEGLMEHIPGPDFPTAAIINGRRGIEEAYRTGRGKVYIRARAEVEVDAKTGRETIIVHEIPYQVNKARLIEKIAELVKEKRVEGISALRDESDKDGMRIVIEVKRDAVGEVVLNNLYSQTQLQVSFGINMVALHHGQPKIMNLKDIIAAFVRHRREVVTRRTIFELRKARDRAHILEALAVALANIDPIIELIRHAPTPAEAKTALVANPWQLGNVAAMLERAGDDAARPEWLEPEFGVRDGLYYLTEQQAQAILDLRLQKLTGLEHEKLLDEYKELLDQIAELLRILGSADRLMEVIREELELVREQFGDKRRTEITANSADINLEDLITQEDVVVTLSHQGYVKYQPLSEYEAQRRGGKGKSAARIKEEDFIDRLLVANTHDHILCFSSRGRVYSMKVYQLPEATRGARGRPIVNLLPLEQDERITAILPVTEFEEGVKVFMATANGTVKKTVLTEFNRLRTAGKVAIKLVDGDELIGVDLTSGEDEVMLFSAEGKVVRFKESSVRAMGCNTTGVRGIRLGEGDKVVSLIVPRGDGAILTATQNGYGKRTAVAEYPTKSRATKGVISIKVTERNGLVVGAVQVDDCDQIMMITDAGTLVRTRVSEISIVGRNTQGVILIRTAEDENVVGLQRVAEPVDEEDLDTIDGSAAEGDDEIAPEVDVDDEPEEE

B. subtilis [16] = test: Time-kill kinetic assay; type: cell-based; settings: 2 × MIC
K. pneumoniae [17] = test: Single-step resistance selection; type: cell-based; settings: 4 × MIC, 48 h
S. aureus (MDR00231) [18] = test: Agar well-diffusion antimicrobial sensitivity assay; type: cell-based, Staphylococcus aureus; settings: Staphylococcus aureus, read-out: Inhibition Zone (IZ)
K. pneumoniae [19] = test: Checkerboard combination assay with Ciprofloxacin; type: cell-based
[20] = system: S. epidermidis (MDR00223); test: MIC and MBC by broth microdilution; type: cell-based, Staphylococcus epidermidis
S. epidermidis [21] = test: Time-kill kinetic assay; type: cell-based, Staphylococcus epidermidis; settings: 2 × MIC
A. baumannii [22] = test: Time-kill kinetic assay; type: cell-based; settings: 2 × MIC
[23] = In vitro cytotoxicity on normal cell line; type: cell-based, green monkey; settings: green monkey, Vero kidney cells
[24] = system: Vero: green monkey kidney; test: In vitro cytotoxicity on normal cell line; type: cell-based
S. aureus biofilm = test: Staphylococcus biofilm mass reduction; type: cell-based; settings: at their MIC
B. subtilis (MDR00423) = test: MIC and MBC by broth microdilution; type: cell-based
S. aureus [25] = test: Time-kill kinetic assay; type: cell-based, Staphylococcus aureus
C. albicans100 [26] = test: Checkerboard combination assay with Ketoconazole; type: cell-based, Candida albicans
S. epidermidis biofilm = test: Staphylococcus biofilm mass reduction; type: cell-based; settings: at their MIC
B. subtilis [27] = test: Checkerboard combination assay with Ciprofloxacin; type: cell-based
S. aureus [28] = test: Checkerboard combination assay with Ciprofloxacin; type: cell-based, Staphylococcus aureus
E. coli (MDR00501) [29] = test: MIC and MBC by broth microdilution; type: cell-based
[30] = target: T1, dihydrofolate reductase (DHFR) (Homo sapiens, UniProt P00374); test: DHFR inhibition; type: biochemical
T1 sequence (P00374 1-187): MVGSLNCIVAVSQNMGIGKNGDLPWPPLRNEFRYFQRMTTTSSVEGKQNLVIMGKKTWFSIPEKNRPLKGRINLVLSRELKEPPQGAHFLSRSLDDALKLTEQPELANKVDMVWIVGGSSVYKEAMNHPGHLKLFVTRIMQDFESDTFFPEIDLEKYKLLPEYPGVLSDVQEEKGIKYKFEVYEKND

A. baumannii (MDR00521) = test: MIC and MBC by broth microdilution; type: cell-based; settings: ratio in parentheses
S. aureus [31] = test: Single-step resistance selection; type: cell-based, Staphylococcus aureus; settings: 4 × MIC, 48 h
E. coli [32] = test: Checkerboard combination assay with Ciprofloxacin; type: cell-based
S. aureus (MDR00231) [33] = test: MIC and MBC by broth microdilution; type: cell-based, Staphylococcus aureus
[34] = system: BNL: mouse normal liver cells; test: In vitro cytotoxicity on normal cell line; type: cell-based
[35] = In vitro cytotoxicity on normal cell line; type: cell-based, mouse; settings: mouse, BNL normal liver cells
S. epidermidis [36] = test: Single-step resistance selection; type: cell-based, Staphylococcus epidermidis; settings: 4 × MIC, 48 h
A. baumannii [37] = test: Single-step resistance selection; type: cell-based; settings: 4 × MIC, 48 h
S. epidermidis [38] = test: Checkerboard combination assay with Ciprofloxacin; type: cell-based, Staphylococcus epidermidis
B. subtilis [39] = test: Single-step resistance selection; type: cell-based; settings: 4 × MIC, 48 h
[40] = system: all the pathogenic isolates tested; test: Time-kill kinetic assay, whole panel; type: cell-based
[41] = system: S. epidermidis (MDR00223); test: Agar well-diffusion antimicrobial sensitivity assay; type: cell-based, Staphylococcus epidermidis; settings: Staphylococcus epidermidis, read-out: Inhibition Zone (IZ)
E. coli (MDR00501) [42] = test: as above; type: cell-based; settings: Escherichia coli, read-out: Inhibition Zone (IZ)
E. coli [43] = test: Time-kill kinetic assay; type: cell-based

SMILES: CC(=O)N1CCN(c2ccc(OCC3COC(Cn4ccnc4)(c4ccc(Cl)cc4Cl)O3)cc2)CC1 (stereo not shown) [KCA, Ketoconazole, reference compound]
- Single-step resistance frequency (mutation frequency) (C. albicans200 [1]): 3.19 × 10^–8
- time of reduction in the colony-forming units (C. albicans100 [2]): 48 h
- %lysis of RBCs (RBCs): 15.38% and 15.38 ± 0.32%
- MIC (mean ± SEM) ([3]; C. albicans100, broth microdilution): 0.49 ± 0.3 µg/mL (≈ 0.922 µM)
- MFC/MIC ([3]; C. albicans100): 1
- MIC ([3]; broth microdilution): 0.49 µg/mL (≈ 0.922 µM)
- mutation frequency, range over panel [4]: 3.19 × 10^–8 to 3.42 × 10^–9
- time of reduction in the colony-forming units (C. albicans200 [5]): 48 h
- MFC/MIC [6]: 0.5
- MIC [6]: 0.45 ± 0.3 µg/mL (≈ 0.847 µM)
- zone of inhibition at 100000 µg/mL [7]: 21 ± 0.23 mm
- Single-step resistance frequency (mutation frequency) (C. albicans100 [8]): 3.42 × 10^–9
- zone of inhibition at 100000 µg/mL [9]: 24 ± 0.54 mm

SMILES: CCOC(=O)c1c(N)csc1-c1cn(-c2ccccc2)nc1-c1ccc(C)cc1 [Compound 7b, Ethyl 4-Amino-2-(1-phenyl-3-(p-tolyl)-1H-pyrazol-4-yl)thiophene-3-carboxylate]
- time after which cells were rapidly reduced (K. pneumoniae [10]): 12 h
- Single-step resistance frequency (mutation frequency) (C. albicans200 [1]): 3.10 × 10^–6
- combination effect (C. albicans200 [11]): S (S: synergism)
- IC50 at 72 h [12]: 102 ± 1.39 µM
- Selectivity index against DHFR ([13]; IC50 of H9C2 / IC50 of DHFR): 195.44
- Selectivity index against DNA gyrase ([13]; IC50 of H9C2 / IC50 of DNA gyrase): 8.28
- MBC/MIC (K. pneumoniae (MDR00244)): 1
- Single-step resistance frequency (mutation frequency) (E. coli [14]): 1.90 × 10^–6
- combination effect (A. baumannii [15]): S (S: synergism)
- fractional inhibitory concentration index (FICI) (A. baumannii [15]): 0.25
- IC50 (E. coli DNA gyrase): 12.3 ± 0.34 µM
- time after which cells were rapidly reduced (B. subtilis [16]): 12 h
- Single-step resistance frequency (mutation frequency) (K. pneumoniae [17]): 1.67 × 10^–7
- zone of inhibition at 100000 µg/mL (S. aureus (MDR00231) [18]): 33 ± 0.32 mm
- combination effect (K. pneumoniae [19]): S (S: synergism)
- fractional inhibitory concentration index (FICI) (K. pneumoniae [19]): 0.5
- MBC/MIC ([20]; S. epidermidis, ratio in parentheses): 0.5
- MIC ([20]; Staphylococcus epidermidis, read-out: MIC (mean ± SEM), S. epidermidis, broth microdilution): 0.24 ± 0.2 µg/mL (≈ 0.595 µM)
- time after which cells were rapidly reduced (S. epidermidis [21]): 12 h
- time after which cells were rapidly reduced (A. baumannii [22]): 8 h
- IC50 at 72 h [23]: 78.8 ± 1.1 µM
- Selectivity index against DHFR ([24]; IC50 of Vero / IC50 of DHFR): 151.61
- Selectivity index against DNA gyrase ([24]; IC50 of Vero / IC50 of DNA gyrase): 6.42
- reduction of biofilm formation (S. aureus biofilm): 67%
- %lysis of RBCs (RBCs): 3.23% and 3.23 ± 0.58%
- MBC/MIC (B. subtilis (MDR00423); B. subtilis, ratio in parentheses): 1
- MIC (B. subtilis (MDR00423); Bacillus subtilis, read-out: MIC (mean ± SEM), B. subtilis, broth microdilution): 0.23 ± 0.6 µg/mL (≈ 0.57 µM)
- MFC/MIC ([3]; C. albicans100): 1
- MIC ([3]; broth microdilution): 0.25 ± 0.2 µg/mL (≈ 0.62 µM)
- time of maximum reduction (S. aureus [25]; 1/2 × MIC): 24 h
- time after which cells were rapidly reduced (S. aureus [25]; 2 × MIC): 8 h
- combination effect (C. albicans100 [26]): S (S: synergism)
- fractional inhibitory concentration index (FICI) (C. albicans100 [26]): 0.5
- reduction of biofilm formation (S. epidermidis biofilm): 58%
- mutation frequency, range over panel [4]: 1.34 × 10^–6 to 1.67 × 10^–7
- combination effect (B. subtilis [27]): S (S: synergism)
- fractional inhibitory concentration index (FICI) (B. subtilis [27]): 0.5
- combination effect (S. aureus [28]): S (S: synergism)
- fractional inhibitory concentration index (FICI) (S. aureus [28]): 0.25
- MBC/MIC (E. coli (MDR00501) [29]; E. coli, ratio in parentheses): 0.5
- MIC (E. coli (MDR00501) [29]; Escherichia coli, read-out: MIC (mean ± SEM), E. coli, broth microdilution): 0.23 ± 0.1 µg/mL (≈ 0.57 µM)
- IC50 [30]: 0.52 ± 0.2 µM
- MBC/MIC (A. baumannii (MDR00521)): 1
- Single-step resistance frequency (mutation frequency) (S. aureus [31]): 1.34 × 10^–6
- MFC/MIC [6]: 0.5
- MIC [6]: 0.23 ± 0.3 µg/mL (≈ 0.57 µM)
- combination effect (E. coli [32]): S (S: synergism)
- fractional inhibitory concentration index (FICI) (E. coli [32]): 0.5
- zone of inhibition at 100000 µg/mL [7]: 31 ± 0.11 mm
- MBC/MIC (S. aureus (MDR00231) [33]; S. aureus, ratio in parentheses): 0.5
- MIC (S. aureus (MDR00231) [33]; Staphylococcus aureus, read-out: MIC (mean ± SEM), S. aureus, broth microdilution): 0.22 ± 0.3 µg/mL (≈ 0.545 µM)
- Single-step resistance frequency (mutation frequency) (C. albicans100 [8]): 2.51 × 10^–6
- Selectivity index against DHFR ([34]; IC50 of BNL / IC50 of DHFR): 198.65
- Selectivity index against DNA gyrase ([34]; IC50 of BNL / IC50 of DNA gyrase): 8.41
- IC50 at 72 h [35]: 103 ± 1.51 µM
- Single-step resistance frequency (mutation frequency) (S. epidermidis [36]): 1.62 × 10^–6
- Single-step resistance frequency (mutation frequency) (A. baumannii [37]): 2.11 × 10^–6
- zone of inhibition at 100000 µg/mL [9]: 32 ± 0.32 mm
- combination effect (S. epidermidis [38]): S (S: synergism)
- fractional inhibitory concentration index (FICI) (S. epidermidis [38]): 0.25
- Single-step resistance frequency (mutation frequency) (B. subtilis [39]): 1.30 × 10^–7
- reduction in the viable cell count relative to the initial inoculum [40]: ≥ 3 log10
- zone of inhibition at 100000 µg/mL [41]: 31 ± 0.16 mm
- zone of inhibition at 100000 µg/mL (E. coli (MDR00501) [42]): 30 ± 0.5 mm
- time of maximum reduction (E. coli [43]; 1/2 × MIC): 24 h
- time after which cells were rapidly reduced (E. coli [43]; 2 × MIC): 4 h
